Results: publication PMC8617031, “Development of a BCL-xL and BCL-2 dual degrader with improved anti-leukemic activity,” (Nature Communications, 2021)
“And” between values parts separate entries of the source, which are not always exact repeats. Equal entries are not always repeated. Where two headings read alike, the source gives them in different places.

Tests used:
[1] = molecular target: T1, His-tagged BCL-xL (Homo sapiens, UniProt Q07817); experiment: AlphaScreen competitive binary binding, BCL-xL (biotin-BAD peptide); conditions: for inhibition at 0.000305176 µM / inhibition at 0.0012207 µM / inhibition at 0.00488281 µM / inhibition at 0.0195312 µM / inhibition at 0.078125 µM / inhibition at 0.3125 µM / inhibition at 1.25 µM / inhibition at 5 µM: read-out: Alpha signal normalised to Maximum/Minimum (inhibition)
T1 construct: purchased Sigma-Aldrich SRP0187
T1 sequence (Q07817 whole entry): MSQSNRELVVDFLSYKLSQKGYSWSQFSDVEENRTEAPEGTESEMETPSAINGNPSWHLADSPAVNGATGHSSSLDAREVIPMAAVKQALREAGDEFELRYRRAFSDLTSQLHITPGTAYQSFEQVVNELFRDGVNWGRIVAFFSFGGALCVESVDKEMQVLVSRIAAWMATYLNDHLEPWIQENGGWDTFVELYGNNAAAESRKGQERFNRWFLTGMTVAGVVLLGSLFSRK
Protocol: (§1) The reagents were diluted in a buffer containing 250 mM HEPES pH 7.5, 1 M NaCl, 1% BSA, and 0.05% Tween-80. His-tagged BCL-xL (0.5 nM, Cat. No. SRP0187, Sigma-Aldrich) or BCL-2 (1 nM, Cat. No. SRP0186, Sigma-Aldrich) were incubated with serial diluted 753a or 753b and 2 nM biotin-tagged BAD (biotin-[…] amino-terminal, AnaSpec, for BCL-xL) or 10 nM BIM peptides (biotin-[…] N-terminal, AnaSpec, for BCL-2) to a final volume of 40 µl in a 96-well PCR plate. […] After incubation for 2 h, 5 µl 6× His-acceptor beads (Cat. No. AL128M, PerkinElmer) were added to each well at 20 µg/ml final concentration and incubated for 1 h. Then 5 µl streptavidin-donor beads were added (Cat. No. 6760002, PerkinElmer) to each well at 20 µg/ml final concentration and incubated for 45 min. At the end of the incubation period, 17 µl of each sample was transferred in adjacent wells of 384-well proxy plate (Cat. No. 6008280, PerkinElmer). The plate was scanned using the Alpha program on Biotek’s Synergy Neo2 multimode plate reader. The inhibition constant (Ki) was calculated using the non-linear regression, one site, competitive binding, Fit Ki function on GraphPad Prism 9 software, based on experimentally determined dissociation constant (Kd) for each protein–peptide pair.

[2] = molecular target: T2, His-tagged BCL-2 (Homo sapiens, UniProt P10415); experiment: AlphaScreen competitive binary binding, BCL-2 (biotin-BIM peptide); conditions: for Alpha signal normalised to Maximum/Minimum (inhibition): in % (unit assumed)
T2 construct: purchased Sigma-Aldrich SRP0186
T2 sequence (P10415 whole entry): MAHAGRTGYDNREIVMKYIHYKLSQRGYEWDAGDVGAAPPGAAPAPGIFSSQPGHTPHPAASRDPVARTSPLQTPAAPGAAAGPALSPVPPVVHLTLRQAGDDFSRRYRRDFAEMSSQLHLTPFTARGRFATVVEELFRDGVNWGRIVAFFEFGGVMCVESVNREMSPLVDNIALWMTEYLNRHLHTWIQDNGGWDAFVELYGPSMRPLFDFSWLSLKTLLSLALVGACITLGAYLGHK
Protocol: as §1

## CC1(C)CCC(c2ccc(Cl)cc2)=C(CN2CCN(c3ccc(C(=O)NS(=O)(=O)c4ccc(N[C@H](CCN5CCOCC5)CSc5ccccc5)c(S(=O)(=O)C(F)(F)F)c4)cc3)CC2)C1 [ABT263, navitoclax]
[1]; BCL-xL Rep-1, 0.000305176 uM, 0.000305176 µM
  Alpha signal normalised to Maximum/Minimum (inhibition): 28.4807
[1]; BCL-xL Rep-1, 0.000305176 uM
  inhibition at 0.000305176 µM: 32%
[1]; BCL-xL Rep-1, 0.0012207 uM, 0.0012207 µM
  Alpha signal normalised to Maximum/Minimum (inhibition): 28.8475
[1]; BCL-xL Rep-1, 0.0012207 uM
  inhibition at 0.0012207 µM: 27.8%
[1]; BCL-xL Rep-1, 0.00488281 uM, 0.00488281 µM
  Alpha signal normalised to Maximum/Minimum (inhibition): 50.9941
[1]; BCL-xL Rep-1, 0.00488281 uM
  inhibition at 0.00488281 µM: 46.4%
[1]; BCL-xL Rep-1, 0.0195312 uM, 0.0195312 µM
  Alpha signal normalised to Maximum/Minimum (inhibition): 73.9595
[1]; BCL-xL Rep-1, 0.0195312 uM
  inhibition at 0.0195312 µM: 70.8%
[1]; BCL-xL Rep-1, 0.078125 uM, 0.078125 µM
  Alpha signal normalised to Maximum/Minimum (inhibition): 89.8384
[1]; BCL-xL Rep-1, 0.078125 uM
  inhibition at 0.078125 µM: 90.1%
[1]; BCL-xL Rep-1, 0.3125 uM, 0.3125 µM
  Alpha signal normalised to Maximum/Minimum (inhibition): 98.7717
[1]; BCL-xL Rep-1, 0.3125 uM
  inhibition at 0.3125 µM: 97.2%
[1]; BCL-xL Rep-1, 1.25 uM, 1.25 µM
  Alpha signal normalised to Maximum/Minimum (inhibition): 99.2115
[1]; BCL-xL Rep-1, 1.25 uM
  inhibition at 1.25 µM: 98.7%
[1]; BCL-xL Rep-1, 5 uM, 5 µM
  Alpha signal normalised to Maximum/Minimum (inhibition): 98.674
[1]; BCL-xL Rep-1, 5 uM
  inhibition at 5 µM: 99.7%
[1]; BCL-xL Rep-1, plate row B, 5 uM
  Alpha signal (raw counts): 24284 and 38579
[1]; BCL-xL Rep-1, plate row C, 1.25 uM
  Alpha signal (raw counts): 38335 and 30879
[1]; BCL-xL Rep-1, plate row D, 0.3125 uM
  Alpha signal (raw counts): 59200 and 37180
[1]; BCL-xL Rep-1, plate row E, 0.078125 uM
  Alpha signal (raw counts): 160796 and 165155
[1]; BCL-xL Rep-1, plate row F, 0.0195312 uM
  Alpha signal (raw counts): 437862 and 392628
[1]; BCL-xL Rep-1, plate row G, 0.00488281 uM
  Alpha signal (raw counts): 787377 and 721620
[1]; BCL-xL Rep-1, plate row H, 0.0012207 uM
  Alpha signal (raw counts): 1053850 and 1038882
[1]; BCL-xL Rep-1, plate row I, 0.000305176 uM
  Alpha signal (raw counts): 993971 and 1044138
[1]; BCL-xL Rep-1, plate row J, 7.62939e-5 uM
  Alpha signal (raw counts): 1100587 and 1144199
[1]; BCL-xL Rep-1, plate row K, 1.90735e-5 uM
  Alpha signal (raw counts): 1236998 and 1302696
[1]; BCL-xL Rep-2, 7.62939e-5 uM
  Alpha signal (raw counts): 1461205 and 1360749
[1]; BCL-xL Rep-2, 0.000305176 uM, 0.000305176 µM
  Alpha signal normalised to Maximum/Minimum (inhibition): 14.6957
[1]; BCL-xL Rep-2, 0.000305176 uM
  inhibition at 0.000305176 µM: 13%
[1]; BCL-xL Rep-2, 0.0012207 uM, 0.0012207 µM
  Alpha signal normalised to Maximum/Minimum (inhibition): 16.3472
[1]; BCL-xL Rep-2, 0.0012207 uM
  inhibition at 0.0012207 µM: 24%
[1]; BCL-xL Rep-2, 0.00488281 uM, 0.00488281 µM
  Alpha signal normalised to Maximum/Minimum (inhibition): 45.5298
[1]; BCL-xL Rep-2, 0.00488281 uM
  inhibition at 0.00488281 µM: 46%
[1]; BCL-xL Rep-2, 0.0195312 uM, 0.0195312 µM
  Alpha signal normalised to Maximum/Minimum (inhibition): 63.2992
[1]; BCL-xL Rep-2, 0.0195312 uM
  inhibition at 0.0195312 µM: 60.9%
[1]; BCL-xL Rep-2, 0.078125 uM, 0.078125 µM
  Alpha signal normalised to Maximum/Minimum (inhibition): 91.4929
[1]; BCL-xL Rep-2, 0.078125 uM
  inhibition at 0.078125 µM: 89.7%
[1]; BCL-xL Rep-2, 0.3125 uM, 0.3125 µM
  Alpha signal normalised to Maximum/Minimum (inhibition): 98.2227
[1]; BCL-xL Rep-2, 0.3125 uM
  inhibition at 0.3125 µM: 97.4%
[1]; BCL-xL Rep-2, 1.25 uM, 1.25 µM
  Alpha signal normalised to Maximum/Minimum (inhibition): 99.5826
[1]; BCL-xL Rep-2, 1.25 uM
  inhibition at 1.25 µM: 100%
[1]; BCL-xL Rep-2, 5 uM, 5 µM
  Alpha signal normalised to Maximum/Minimum (inhibition): 99.8318
[1]; BCL-xL Rep-2, 5 uM
  inhibition at 5 µM: 99%
[1]; BCL-xL Rep-2, plate row B, 5 uM
  Alpha signal (raw counts): 36635 and 25525
[1]; BCL-xL Rep-2, plate row C, 1.25 uM
  Alpha signal (raw counts): 22256 and 28959
[1]; BCL-xL Rep-2, plate row D, 0.3125 uM
  Alpha signal (raw counts): 58501 and 47695
[1]; BCL-xL Rep-2, plate row E, 0.078125 uM
  Alpha signal (raw counts): 165323 and 140416
[1]; BCL-xL Rep-2, plate row F, 0.0195312 uM
  Alpha signal (raw counts): 561843 and 528857
[1]; BCL-xL Rep-2, plate row G, 0.00488281 uM
  Alpha signal (raw counts): 767546 and 773677
[1]; BCL-xL Rep-2, plate row H, 0.0012207 uM
  Alpha signal (raw counts): 1070160 and 1175743
[1]; BCL-xL Rep-2, plate row I, 0.000305176 uM
  Alpha signal (raw counts): 1221423 and 1198497
[1]; BCL-xL Rep-2, plate row K, 1.90735e-5 uM
  Alpha signal (raw counts): 1346687 and 1389856
[2]; BCL-2 Rep-1, 0.000305176 uM, 0.000305176 µM
  Alpha signal normalised to Maximum/Minimum (inhibition): 59.5965
[2]; BCL-2 Rep-1, 0.000305176 uM, read-out: Alpha signal normalised to Maximum/Minimum (inhibition)
  inhibition at 0.000305176 µM: 58.7%
[2]; BCL-2 Rep-1, 0.0012207 uM, 0.0012207 µM
  Alpha signal normalised to Maximum/Minimum (inhibition): 60.0938
[2]; BCL-2 Rep-1, 0.0012207 uM, read-out: Alpha signal normalised to Maximum/Minimum (inhibition)
  inhibition at 0.0012207 µM: 49.1%
[2]; BCL-2 Rep-1, 0.00488281 uM, 0.00488281 µM
  Alpha signal normalised to Maximum/Minimum (inhibition): 80.812
[2]; BCL-2 Rep-1, 0.00488281 uM, read-out: Alpha signal normalised to Maximum/Minimum (inhibition)
  inhibition at 0.00488281 µM: 82.4%
[2]; BCL-2 Rep-1, 0.0195312 uM, 0.0195312 µM
  Alpha signal normalised to Maximum/Minimum (inhibition): 99.3807
[2]; BCL-2 Rep-1, 0.0195312 uM, read-out: Alpha signal normalised to Maximum/Minimum (inhibition)
  inhibition at 0.0195312 µM: 98.6%
[2]; BCL-2 Rep-1, 0.078125 uM, 0.078125 µM
  Alpha signal normalised to Maximum/Minimum (inhibition): 99.9974
[2]; BCL-2 Rep-1, 0.078125 uM, read-out: Alpha signal normalised to Maximum/Minimum (inhibition)
  inhibition at 0.078125 µM: 100%
[2]; BCL-2 Rep-1, 0.3125 uM, 0.3125 µM
  Alpha signal normalised to Maximum/Minimum (inhibition): 99.341
[2]; BCL-2 Rep-1, 0.3125 uM, read-out: Alpha signal normalised to Maximum/Minimum (inhibition)
  inhibition at 0.3125 µM: 98.9%
[2]; BCL-2 Rep-1, 1.25 uM, 1.25 µM
  Alpha signal normalised to Maximum/Minimum (inhibition): 100.024
[2]; BCL-2 Rep-1, 1.25 uM, read-out: Alpha signal normalised to Maximum/Minimum (inhibition)
  inhibition at 1.25 µM: 99%
